Publication doi:10.1101/2022.03.02.482641v1 (biorxiv, 2022)

Columns and labels:
Assay type in all cases: biochemical
[1] = target: T1, zfSARM1 (zebrafish SARM1, zfSARM1 w.t.) (Danio rerio, UniProt F1QWA8); experiment: HPLC of ADPR formation
T1 sequence (F1QWA8 22-713): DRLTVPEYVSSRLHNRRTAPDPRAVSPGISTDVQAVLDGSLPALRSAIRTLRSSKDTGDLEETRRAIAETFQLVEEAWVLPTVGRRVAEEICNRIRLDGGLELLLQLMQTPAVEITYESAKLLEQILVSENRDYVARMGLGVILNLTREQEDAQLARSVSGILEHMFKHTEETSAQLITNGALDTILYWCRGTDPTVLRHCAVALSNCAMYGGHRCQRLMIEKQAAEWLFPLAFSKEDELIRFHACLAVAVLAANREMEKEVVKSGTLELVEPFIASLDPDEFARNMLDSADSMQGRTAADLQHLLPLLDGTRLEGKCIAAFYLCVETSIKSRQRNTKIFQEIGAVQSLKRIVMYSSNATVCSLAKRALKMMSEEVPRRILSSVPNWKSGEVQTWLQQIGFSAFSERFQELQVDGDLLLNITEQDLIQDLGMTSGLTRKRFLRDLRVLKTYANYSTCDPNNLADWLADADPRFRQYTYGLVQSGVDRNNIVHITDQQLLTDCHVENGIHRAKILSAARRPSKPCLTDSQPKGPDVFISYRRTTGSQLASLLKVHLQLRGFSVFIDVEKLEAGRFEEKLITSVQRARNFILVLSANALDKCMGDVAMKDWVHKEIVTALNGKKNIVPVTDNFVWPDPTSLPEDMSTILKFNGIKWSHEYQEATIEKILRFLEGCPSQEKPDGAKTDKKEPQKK

[2] = target: T2, hSARM1 (hSARM1 w.t., near-intact, 26ERL...GPT724) (Homo sapiens, UniProt Q6SZW1); experiment: HPLC of ADPR formation
T2 sequence (Q6SZW1 26-724): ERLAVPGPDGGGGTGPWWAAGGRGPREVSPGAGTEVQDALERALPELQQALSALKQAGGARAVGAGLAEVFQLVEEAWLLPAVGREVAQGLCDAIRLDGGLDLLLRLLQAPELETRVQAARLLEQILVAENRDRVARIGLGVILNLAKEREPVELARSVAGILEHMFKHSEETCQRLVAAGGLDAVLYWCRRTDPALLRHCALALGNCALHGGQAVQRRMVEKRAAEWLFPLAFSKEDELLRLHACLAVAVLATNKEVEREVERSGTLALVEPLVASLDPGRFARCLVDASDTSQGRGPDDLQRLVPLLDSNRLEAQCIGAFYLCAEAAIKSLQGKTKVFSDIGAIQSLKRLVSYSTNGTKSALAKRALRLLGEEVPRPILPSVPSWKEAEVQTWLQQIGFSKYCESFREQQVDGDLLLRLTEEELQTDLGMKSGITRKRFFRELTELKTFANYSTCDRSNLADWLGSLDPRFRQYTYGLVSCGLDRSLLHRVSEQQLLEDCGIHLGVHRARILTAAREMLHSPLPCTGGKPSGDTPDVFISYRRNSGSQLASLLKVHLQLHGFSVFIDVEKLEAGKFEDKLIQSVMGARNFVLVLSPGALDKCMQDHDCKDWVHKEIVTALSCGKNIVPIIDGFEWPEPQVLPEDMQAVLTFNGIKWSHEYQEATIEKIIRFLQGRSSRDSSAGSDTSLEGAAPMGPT

[3] = target: T1, zfSARM1 (zebrafish SARM1, zfSARM1 w.t.); experiment: NADase kinetics, HPLC, substrate inhibition fit; conditions: apparent substrate inhibition by NAD+
[4] = target: T2, hSARM1 (hSARM1 w.t., near-intact, 26ERL...GPT724); experiment: NADase kinetics, HPLC, substrate inhibition fit; conditions: apparent substrate inhibition by NAD+

Structure (SMILES) | EC50 [1] [µM] | IC50 [2] [µM] | Ki [3] [µM] | Ki [4] [µM]
N#Cc1c(O)nsc1Nc1ccccc1C(F)(F)F [TK138] | 2.7 | 2.9 | – | –
NC(=O)c1ccc[n+]([C@@H]2O[C@H](COP(=O)([O-])OP(=O)(O)OC[C@H]3O[C@@H](n4cnc5c(N)ncnc54)[C@H](O)[C@@H]3O)[C@@H](O)[C@H]2O)c1 [NAD+] | – | – | 1350 | 727
CCOC(=O)Cn1sc2nc(C)cc(C)c2c1=O [TK142] | – | 1.8 | – | –

Now from value to compound:

EC50 [1] [µM] | IC50 [2] [µM] | Ki [3] [µM] | Ki [4] [µM] | Structure (SMILES)
– | 4.6 | – | – | Cn1c(=O)c(I)c(O)c2ccccc21 [TK210]
– | 3.2 | – | – | O=c1[nH]sc2ccccc12 [TK222]
